Results reported in article PMC6291527, “A Nanostructured Lipid System to Improve the Oral Bioavailability of Ruthenium(II) Complexes for the Treatment of Infections Caused by Mycobacterium tuberculosis” (Frontiers in Microbiology, 2018).
Marks after values point to notes of the source that are not given here.

Assays:
[1] = system: mouse macrophages (J774A.1); assay: In vitro cytotoxic activity (resazurin) in macrophages; assay type: cell-based; conditions: complex solubilized in DMSO; J774A.1 macrophages, 24 h
Method: The cytotoxicity of the complexes solubilized in DMSO and loaded into the NLS was measured in mouse macrophages (J774A.1 ATCCb TIB-67) as described by [Pavan et al. (2010a)]. The cells were incubated at 37°C with 5% CO2 on plates with a surface area of 12.50 cm^2 in 10 ml RPMI (Vitrocell®, Campinas, SP, Brazil) supplemented with 10% fetal bovine serum, gentamicin sulfate (50 mg l^-1) and amphotericin B (2 mg l^-1). This technique consists of collecting the cells using a scraper, centrifuging (2000 rpm for 5 min), counting the number of cells in a Newbauer chamber, and then adjusting the concentration to 3.4 × 10^5 cells ml^-1 in RPMI. Next, 200 μl suspension was deposited into each well of a 96-well microplate and incubated at 37°C in an atmosphere of 5% CO2 for 24 h to allow the cells to attach to the plate. Dilutions of the test compounds were prepared to obtain concentrations from 500 to 1.95 μg ml^-1. […] The cytotoxicity of the compounds was determined by adding 30 μl developer of resazurin and read after a 6-h incubation. The reading was performed in a microplate Cytation 3 (Biotek®, Winooski, VT, United States) reader using excitation and emission filters at wavelengths of 530 and 590 nm, respectively. The cytotoxicity (IC50) was defined as the highest concentration of compound inhibiting the growth of at least 50% of the cells and was obtained from non-linear regression using GraphPad Prism 7.0 for Windows.

[2] = system: M. tuberculosis H37Rv ATCC 27294; assay: Resazurin Microtiter Assay (REMA), MIC90 against M. tuberculosis H37Rv; conditions: for MIC90 DMSO: complex solubilized in DMSO, mean ± SD; for Standard MIC Pre-determined: repeats Table 2 values, mean ± SD of three assays

## Cc1ccnc(-c2cc(C)ccn2)c1.F[P-](F)(F)(F)(F)F.O=C([O-])c1ccccn1.[Ru+2].c1ccc(P(CCCCP(c2ccccc2)c2ccccc2)c2ccccc2)cc1 [SCAR2, [Ru(pic)(dppb)(Me-bipy)]PF6]
[1]
  IC50 DMSO: 6.51 ± 0.67^a μg mL^-1
[2]
  MIC90 DMSO: 1.08 ± 0.12^a μg mL^-1
  Standard MIC Pre-determined: 1.08 ± 0.12 µg/mL

## F[P-](F)(F)(F)(F)F.O=C([O-])c1ccccn1.[Ru+2].c1ccc(P(CCP(c2ccccc2)c2ccccc2)c2ccccc2)cc1.c1ccc(P(CCP(c2ccccc2)c2ccccc2)c2ccccc2)cc1 [SCAR5, cis-[Ru(pic)(dppe)2]PF6]
[1]
  IC50 DMSO: 3.88 ± 0.98^a μg mL^-1
[2]
  MIC90 DMSO: 1.32 ± 0.03^a μg mL^-1
  Standard MIC Pre-determined: 1.32 ± 0.03 µg/mL

## [Ru(pic)(dppb)(bipy)]PF6 [SCAR1]
[1]
  IC50 DMSO: 22.26 ± 1.85^a μg mL^-1
[2]
  MIC90 DMSO: 1.18 ± 0.08^a μg mL^-1
  Standard MIC Pre-determined: 1.18 ± 0.08 µg/mL

## [Ru(pic)(dppb)(phen)]PF6 [SCAR4]
[1]
  IC50 DMSO: 7.57 ± 0.13^a μg mL^-1
[2]
  MIC90 DMSO: 1.34 ± 0.08^a μg mL^-1
  Standard MIC Pre-determined: 1.34 ± 0.08 µg/mL

## [Ru(pic)(dppe)(phen)]PF6 [SCAR7]
[1]
  IC50 DMSO: 14.36 ± 1.57^a μg mL^-1
[2]
  MIC90 DMSO: 0.98 ± 0.05^a μg mL^-1
  Standard MIC Pre-determined: 0.98 ± 0.05 µg/mL
